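1) Cells in 96-well plates. 2) Compound, 48 h, 5 concentrations. 3) Linear interpolation between surrounding doses. 4) Unreached endpoint = highest concentration. At the GI50, growth is halved.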 Active and inactive are the calls of the source. Cut-off read from the data, not from the text of the source: active = GI50 up to about 1.1 µM and inactive = higher.
Experiments:
Assay in all cases: NCI anticancer screen, dose series, 48 h
[1] = system: M19-MEL
[2] = system: LXFL 529
[3] = system: XF498
[4] = system: KM-20L2
[5] = system: DLD-1
[6] = system: SNB-78
[7] = system: Hs-578T
[8] = system: HOP-18

With `Cc1c(C2Cc3ccccc3N2)c2ccccc2n1C` (configuration not stated) the GI50 [1] was > 100 µM (inactive), the GI50 [2] was > 100 µM (inactive) and the GI50 [3] was > 100 µM (inactive). The GI50 [4] was > 100 µM (inactive), the GI50 [5] was > 100 µM (inactive) and the GI50 [6] was > 100 µM (inactive).
In the case of `CC1CN(c2cc3c(cc2F)c(=O)c(C(=O)O)cn3-c2ccc(N3CCN(C)CC3)cn2)CC(C)N1` (configuration not stated), the GI50 [7] is reported as > 100 µM (inactive).
In the case of `CC(=O)O[C@H]1CC[C@@]2(C)C(=CC[C@H]3C(CC#N)[C@@](C)(C#N)CCC32)C1` (some centres not stated), the GI50 [1] is reported as > 100 µM (inactive), the GI50 [2] is reported as > 100 µM (inactive) and the GI50 [3] is reported as > 100 µM (inactive). For the same compound, the GI50 [4] was > 100 µM (inactive), the GI50 [5] was > 100 µM (inactive) and the GI50 [6] was 47.6 µM (inactive).
`Cc1cnc2[nH]c(-c3cccc(F)c3)cc(=O)c2c1` was tested, and the GI50 [7] was 0.0121 µM (active).
In the case of `Cc1ccc(S(=O)(=O)NNC(=S)Nc2cccc3ccccc23)cc1`, the GI50 [7] is reported as 97.5 µM (inactive).
For `CC1CC[C@@]2(OC1)OC1C[C@H]3[C@@H]4CC[C@H]5CC(OC6OC(CO)C(O)C(OC7OC(CO)C(OC8OC(CO)C(O)C(OC9OC(CO)C(O)C(O)C9O)C8OC8OC(CO)C(O)C(O)C8O)C(O)C7O)C6O)[C@H](O)CC5(C)[C@H]4CCC3(C)C1[C@@H]2C` (some centres not stated), the GI50 [7] was 1.84 µM (inactive).
With `CCc1nc(N)nc(N)c1-c1ccc(NCCc2ccccc2)c([N+](=O)[O-])c1` the GI50 [7] was 9.66 µM (inactive).
With `CC(C)(C)OC(=O)NC(Cc1ccc(OC(C)(C)C)cc1)C(=O)N[C@H]1CCC[C@H]1C(=O)NC(Cc1ccccc1)C(=O)N1CCCC1C(N)=O` (some centres not stated) the GI50 [7] was > 100 µM (inactive).
For `CCOC(=O)C1(C#N)C(=O)c2cc[n+](CC[n+]3ccc4c(c3)C(=O)C(C#N)(C(=O)OCC)C4=O)cc2C1=O` (configuration not stated), the GI50 [7] was > 100 µM (inactive).
For `O=C1/C(=C/c2ccc(O)cc2)CCc2ccccc21`, the GI50 [7] was 23 µM (inactive).
With `Cc1ccc(O)c(C(c2ccc(C(c3cc(C)ccc3O)c3cc(C)ccc3O)cc2)c2cc(C)ccc2O)c1` the GI50 [7] was 2.39 µM (inactive).
With `C(=N\Nc1ccc(-c2nc3ccccc3[nH]2)cc1)/c1c(-c2ccc(Cc3ccccc3)cc2)[nH]c2ccccc12` the GI50 [7] was 2.57 µM (inactive).
`CC(=O)NC(Cc1ccc(O)cc1)C(=O)O` (configuration not stated) was tested, and the GI50 [7] was > 100 µM (inactive).
For `CCOC(=O)COc1ccc2c(C)cc(=O)oc2c1`, the GI50 [7] was > 100 µM (inactive).
In the case of `CC(C)OC(=O)c1ccc(CCC2=CC(=O)C(Br)=CC2=O)cc1`, the GI50 [7] is reported as 15.7 µM (inactive).
In the case of `Cc1ccccc1/N=N/c1ccc(/N=N/c2c(O)ccc3cc(S(=O)(=O)O)cc(S(=O)(=O)O)c23)c(C)c1`, the GI50 [7] is reported as > 100 µM (inactive).
In the case of `COc1ccc(NC(=O)CC2S/C(=N\c3ccccc3C)NC2=O)c([N+](=O)[O-])c1` (configuration not stated), the GI50 [1] is reported as > 100 µM (inactive), the GI50 [2] is reported as > 100 µM (inactive) and the GI50 [3] is reported as > 100 µM (inactive). For the same compound, the GI50 [4] was > 100 µM (inactive), the GI50 [5] was > 100 µM (inactive) and the GI50 [6] was > 100 µM (inactive).
In the case of `O=C1c2ccccc2-c2nnc3c(c21)-c1ccccc1C3`, the GI50 [7] is reported as > 100 µM (inactive).
`COC(=O)c1cc(CC2Cc3cc4c(cc3C2=O)CCC4)cc2c1CCC2` (configuration not stated) was tested, and the GI50 [7] was 24.8 µM (inactive).
In the case of `O=C1C2CC(Cl)C(SSC3CC4C(=O)N(SC(Cl)(Cl)C(Cl)Cl)C(=O)C4CC3Cl)CC2C(=O)N1SC(Cl)(Cl)C(Cl)Cl` (configuration not stated), the GI50 [7] is reported as 2.37 µM (inactive).
For `CC(=O)Oc1ccc(/C=C/C(=O)NCC(NC(=O)/C=C/c2ccc(OC(C)=O)c(OC(C)=O)c2)C(=O)O)cc1OC(C)=O` (configuration not stated), the GI50 [7] was > 100 µM (inactive).
`CN(O)C(=O)CCC(NC(=O)CCC(N)C(=O)O)C(=O)NCC(=O)O` (configuration not stated) was tested, and the GI50 [7] was > 100 µM (inactive).
In the case of `NC(CCCCNCc1ccccc1O)C(=O)O` (configuration not stated), the GI50 [1] is reported as > 100 µM (inactive), the GI50 [2] is reported as > 100 µM (inactive) and the GI50 [4] is reported as > 100 µM (inactive). For the same compound, the GI50 [5] was > 100 µM (inactive), the GI50 [6] was > 100 µM (inactive) and the GI50 [8] was > 100 µM (inactive).
In the case of `COc1ccc2[nH]c3c(c2c1)CCc1ccccc1-3`, the GI50 [7] is reported as 17.4 µM (inactive).
With `O=[N+]([O-])/C(C(Cl)=C(Cl)Cl)=C(\Nc1ccccc1)n1nnc2ccccc21` the GI50 [7] was 20.6 µM (inactive).
With `Clc1ccccc1-c1nn2c(CCCCCCCCc3nnc4sc(-c5ccccc5Cl)nn34)nnc2s1` the GI50 [7] was > 100 µM (inactive).
In the case of `CC(C)(CO)CNc1cc(Cl)nc(N)n1`, the GI50 [7] is reported as > 100 µM (inactive).
